The values below are quoted from earlier work in patent US20190321375A1, “METHOD OF ADMINISTERING A NE[…] EFFECT ELECTROENCEPHALOGRAPHIC (EEG) BURST SUPPRESSION” (MARINUS PHARMACEUTICALS, INC., priority 2016, published 2019).

Usually half-life stands for the time needed for the level to fall by half in the phase considered.

Data set [1] has as its system patients. The note with it: induction bolus.
The conditions of data set [2]: in vivo.

SMILES strings stand for the structures. Where two headings read alike, the source gives them in different places.

As for `CC(C)c1cccc(C(C)C)c1O` [propofol], in data set [1], the “entry into burst suppression” value is “can enter burst suppression directly from the awake state”.

`CC(=O)[C@H]1CC[C@H]2[C@@H]3CC[C@H]4C[C@H](O)CC[C@]4(C)[C@H]3CC[C@]12C` [Allopregnanolone, 3α,5α-tetrahydroprogesterone]: the half-life (human plasma) was 45 min. The oral availability entry in data set [2] was “poor oral availability”.

For the compound `CC(=O)[C@H]1CC[C@H]2[C@@H]3CC[C@H]4C[C@](C)(O)CC[C@]4(C)[C@H]3CC[C@]12C` [Ganaxolone, 3α-hydroxy, 3β-methyl-5α-pregnan-20-one], the half-life entry (human plasma following oral administration) was “approximately 20 hours”. Moreover, the Tmax entry (therapeutic blood levels are reached quickly) is on record as “short”. For the same compound, the oral availability entry in data set [2] is listed as “poor oral availability”.
